# Experimental data from US20170150719A1, “FUNGICIDAL PYRAZOLES AND THEIR MIXTURES” (E I DU PONT DE NEMOURS AND COMPANY, priority 2010, published 2017).
# Marks after values point to notes of the source that are not given here.
# Assays:
# Septoria nodorum = assay: Test E: Septoria glume blotch, preventive spray on wheat seedlings, visual disease rating; details: for Test E rating (disease control) / Test E rating (% disease control) / pest or weed control at 200 µg/mL: 100 = 100% disease control; for Test E rating (disease control) / pest or weed control at 200 µg/mL: 0 = no disease control relative to the controls; for Test E rating (% disease control): Septoria glume blotch on wheat, preventive spray, rating without asterisk; for pest or weed control at 200 µg/mL: Parastagonospora nodorum, in Triticum aestivum, read-out: Test E rating (disease control), Septoria glume blotch
# Description: General protocol for preparing test suspensions for Tests A-I: the test compounds were first dissolved in acetone in an amount equal to 3% of the final volume and then suspended at the desired concentration (in ppm) in acetone and purified water (50/50 mix by volume) containing 250 ppm of the surfactant Trem® 014 (polyhydric alcohol esters). The resulting test suspensions were then used in Tests A-I. Each test was conducted in triplicate, and the results were averaged. Spraying a 200 ppm test suspension to the point of run-off on the test plants was the equivalent of a rate of about 800 g/ha. Unless otherwise indicated, the rating values indicate a 200 ppm test suspension was used. (An asterisk “*” next to the rating value indicates a 40 ppm test suspension was used.)
# The test suspension was sprayed to the point of run-off on wheat seedlings. The following day the seedlings were inoculated with a spore suspension of Septoria nodorum (the causal agent of Septoria glume blotch) and incubated in a saturated atmosphere at 24° C. for 48 h, and then moved to a growth chamber at 20° C. for 9 days, after which time visual disease ratings were made.
# [1] = tested on: Blumeria graminis f. sp. tritici; assay: Test I: wheat powdery mildew, preventive spray on wheat seedlings, visual disease rating; details: for Test I rating (disease control) / Test I rating (% disease control) / pest or weed control at 200 µg/mL: 100 = 100% disease control; for Test I rating (disease control) / pest or weed control at 200 µg/mL: 0 = no disease control relative to the controls; for Test I rating (% disease control): preventive spray, rating without asterisk; for pest or weed control at 200 µg/mL: Blumeria graminis, in Triticum aestivum, read-out: Test I rating (disease control), wheat powdery mildew
# Alternaria solani = assay: Test B: tomato early blight, preventive spray on tomato seedlings, visual disease rating; details: for Test B rating (disease control) / Test B rating (% disease control): 100 = 100% disease control; for Test B rating (disease control): 0 = no disease control relative to the controls; for Test B rating (% disease control): preventive spray, rating without asterisk; for pest or weed control at 200 µg/mL: Alternaria solani, in Solanum lycopersicum, read-out: Test B rating (disease control)
# [2] = tested on: Puccinia recondita f. sp. tritici; assay: Test G: wheat leaf rust, spray after inoculation (curative) on wheat seedlings, visual disease rating; assay type: in vivo; details: for Test G rating (disease control) / Test G rating (% disease control) / pest or weed control at 200 µg/mL: 100 = 100% disease control; for Test G rating (disease control) / pest or weed control at 200 µg/mL: 0 = no disease control; for Test G rating (% disease control): spray after inoculation, rating without asterisk
# Excerpt: (§1) A hyphen (-) indicates no test results.
# Botrytis cinerea = assay: Test A: tomato Botrytis, preventive spray on tomato seedlings, visual disease rating; details: for Test A rating (disease control) / pest or weed control at 200 µg/mL: 0 = no disease control relative to the controls; for pest or weed control at 200 µg/mL: Botrytis cinerea, in Solanum lycopersicum, read-out: Test A rating (disease control), tomato Botrytis
# [3] = tested on: Puccinia recondita f. sp. tritici; assay: Test H: wheat leaf rust, preventive spray on wheat seedlings, visual disease rating; details: for Test H rating (disease control): sprayed the day before inoculation; for Test H rating (disease control) / Test H rating (% disease control) / pest or weed control at 200 µg/mL: 100 = 100% disease control; for Test H rating (disease control) / pest or weed control at 200 µg/mL: 0 = no disease control; for Test H rating (% disease control): preventive spray, rating without asterisk; for pest or weed control at 200 µg/mL: read-out: Test H rating (disease control), wheat leaf rust, sprayed the day before inoculation
# Septoria tritici = assay: Test F: wheat leaf blotch, preventive spray on wheat seedlings, visual disease rating; assay type: in vivo; parameters: Test F rating (disease control), value marked *: concentration or dose not given beside the values; details: for Test F rating (% disease control): preventive spray, rating without asterisk; for pest or weed control at 200 µg/mL: Zymoseptoria tritici; for Test F rating (disease control), value marked *: rating marked with asterisk (*), other test condition, not explained in the text shown
# Excerpt: as §1
# [4] = tomato Botrytis, 100 = 100% disease control
# [5] = 100 = 100% disease control, 0 = no disease control relative to the controls
smiles,measurement,setting,value
Cc1nn(C)c(C(O)c2ccc(Cl)cc2F)c1-c1ccc(F)cc1Cl (racemic) [compound 177],Test E rating (disease control),Septoria nodorum; Septoria glume blotch,0%
same,Test I rating (disease control),[1]; wheat powdery mildew,48%
same,Test B rating (disease control),Alternaria solani; tomato early blight,0%
same,Test G rating (disease control),[2]; sprayed after inoculation,0%
same,Test A rating (disease control),Botrytis cinerea; [4],99%
same,Test H rating (disease control),[3]; wheat leaf rust,0%
Cc1nn(C)c(C(O)c2c(F)cc(F)cc2F)c1-c1ccc(F)cc1Cl (racemic) [compound 178],Test E rating (disease control),Septoria nodorum; Septoria glume blotch,0%
same,Test I rating (disease control),[1]; wheat powdery mildew,74%
same,Test B rating (disease control),Alternaria solani; tomato early blight,33%
same,Test G rating (disease control),[2]; sprayed after inoculation,98%
same,Test A rating (disease control),Botrytis cinerea; [4],100%
same,Test H rating (disease control),[3]; wheat leaf rust,100%
Cc1nn(C)c(C(O)c2ccc(C#N)cc2F)c1-c1ccc(F)cc1Cl (racemic) [compound 179],Test E rating (% disease control),Septoria nodorum,0%
same,Test I rating (% disease control),[1]; wheat powdery mildew,0%
same,Test B rating (% disease control),Alternaria solani; tomato early blight,16%
same,Test G rating (% disease control),[2],9%
same,Test A rating (% disease control),"Botrytis cinerea; tomato Botrytis, preventive spray, 100 = 100% disease control, 0 = no control relative to controls, rating without asterisk",96%
same,Test H rating (% disease control),[3]; wheat leaf rust,99%
COc1ccc(-c2c(C)nn(C)c2C(O)c2c(F)cc(Cl)cc2F)c(Cl)c1 (racemic) [compound 224],Test E rating (% disease control),Septoria nodorum,89%
same,Test I rating (% disease control),[1]; wheat powdery mildew,94%
same,Test F rating (% disease control),Septoria tritici; 100 = 100% disease control,100%
same,Test B rating (% disease control),Alternaria solani; tomato early blight,100%
same,Test G rating (% disease control),[2],54%
same,Test H rating (% disease control),[3]; wheat leaf rust,100%
"COc1cc(F)c(Nc2c(-c3ccc(F)cc3Cl)c(C)nn2C)c(F)c1 [Compound 3, 4-(2-chloro-4-fluorophenyl)-N-(2,6-difluoro-4-methoxyphenyl)-1,3-dimethyl-1H-pyrazol-5-amine]",pest or weed control at 200 µg/mL,Septoria nodorum,93%
same,pest or weed control at 200 µg/mL,[1],100%
same,pest or weed control at 200 µg/mL,Septoria tritici; [5],97%
same,pest or weed control at 200 µg/mL,Alternaria solani,100%
same,pest or weed control at 200 µg/mL,[2]; sprayed after inoculation,96%
same,pest or weed control at 200 µg/mL,Botrytis cinerea; 100 = 100% disease control,100%
same,pest or weed control at 200 µg/mL,[3],100%
"Cc1nn(C)c(Nc2c(F)cc(F)cc2F)c1-c1ccc(F)cc1Cl [Compound 4, 4-(2-chloro-4-fluorophenyl)-1,3-dimethyl-N-(2,4,6-trifluorophenyl)-1H-pyrazol-5-amine]",pest or weed control at 200 µg/mL,Septoria nodorum,99%
same,pest or weed control at 200 µg/mL,[1],100%
same,pest or weed control at 200 µg/mL,Septoria tritici; [5],95%
same,pest or weed control at 200 µg/mL,Alternaria solani,100%
same,pest or weed control at 200 µg/mL,[2]; sprayed after inoculation,99%
same,pest or weed control at 200 µg/mL,Botrytis cinerea; 100 = 100% disease control,99%
same,pest or weed control at 200 µg/mL,[3],100%
"COc1cc(F)c(-c2c(C)nn(C)c2Nc2ccc(F)cc2F)c(F)c1 [Compound 6, 4-(2,6-difluoro-4-methoxyphenyl)-N-(2,4-difluorophenyl)-1,3-dimethyl-1H-pyrazol-5-amine]",pest or weed control at 200 µg/mL,Septoria nodorum,99%
same,pest or weed control at 200 µg/mL,[1],100%
same,pest or weed control at 200 µg/mL,Septoria tritici; [5],93%
same,pest or weed control at 200 µg/mL,Alternaria solani,100%
same,pest or weed control at 200 µg/mL,[2]; sprayed after inoculation,92%
same,pest or weed control at 200 µg/mL,Botrytis cinerea; 100 = 100% disease control,98%
same,pest or weed control at 200 µg/mL,[3],100%
"COc1cc(F)c(-c2c(C)nn(C)c2Nc2c(F)cc(F)cc2F)c(F)c1 [Compound 7, 4-(2,6-difluoro-4-methoxyphenyl)-1,3-dimethyl-N-(2,4,6-trifluorophenyl)-1H-pyrazol-5-amine]",pest or weed control at 200 µg/mL,Septoria nodorum,0%
same,pest or weed control at 200 µg/mL,[1],100%
same,pest or weed control at 200 µg/mL,Septoria tritici; [5],94%
same,pest or weed control at 200 µg/mL,Alternaria solani,100%
same,pest or weed control at 200 µg/mL,[2]; sprayed after inoculation,9%
same,pest or weed control at 200 µg/mL,Botrytis cinerea; 100 = 100% disease control,98%
same,pest or weed control at 200 µg/mL,[3],97%
"Cc1nn(C)c(Oc2c(F)cc(C#N)cc2F)c1-c1c(F)cc(F)cc1F [Compound 8, 4-[[1,3-dimethyl-4-(2,4,6-trifluorophenyl)-1H-pyrazol-5-yl]oxy]-3,5-difluorobenzonitrile]","Test E rating (disease control), value marked *","Septoria nodorum; Septoria glume blotch, rating marked with asterisk (*), other test condition, not explained in the text shown",0* %
same,"Test I rating (disease control), value marked *","[1]; wheat powdery mildew, rating marked with asterisk (*), not explained in the text shown",60* %
same,"Test F rating (disease control), value marked *",Septoria tritici,47* %
same,"Test B rating (disease control), value marked *","Alternaria solani; tomato early blight, rating marked with asterisk (*), other test condition, not explained in the text shown",98* %
same,"Test G rating (disease control), value marked *","[2]; sprayed after inoculation, rating marked with asterisk (*), not explained in the text shown",15* %
same,"Test A rating (disease control), value marked *","Botrytis cinerea; tomato Botrytis, rating marked with asterisk (*), other test condition, not explained in the text shown",99* %
same,"Test H rating (disease control), value marked *","[3]; wheat leaf rust, preventive, rating marked with asterisk (*), not explained in the text shown",79* %
"Cc1nn(C)c(Nc2c(F)cc(F)cc2F)c1-c1ccc(F)cc1F [Compound 11, 4-(2,4-difluorophenyl)-1,3-dimethyl-N-(2,4,6-trifluorophenyl)-1H-pyrazol-5-amine]",pest or weed control at 200 µg/mL,Septoria nodorum,90%
same,pest or weed control at 200 µg/mL,[1],99%
same,pest or weed control at 200 µg/mL,Septoria tritici; [5],94%
same,pest or weed control at 200 µg/mL,Alternaria solani,99%
same,pest or weed control at 200 µg/mL,[2]; sprayed after inoculation,0%
same,pest or weed control at 200 µg/mL,Botrytis cinerea; 100 = 100% disease control,100%
same,pest or weed control at 200 µg/mL,[3],100%
"Cc1nn(C)c(Oc2c(F)cc(C#N)cc2F)c1-c1ccc(F)cc1Cl [Compound 13, 4-[[4-(2-chloro-4-fluorophenyl)-1,3-dimethyl-1H-pyrazol-5-yl]oxy]-3,5-difluorobenzonitrile]",pest or weed control at 200 µg/mL,Septoria nodorum,100%
same,pest or weed control at 200 µg/mL,[1],100%
same,pest or weed control at 200 µg/mL,Septoria tritici; [5],100%
same,pest or weed control at 200 µg/mL,Alternaria solani,100%
same,pest or weed control at 200 µg/mL,[2]; sprayed after inoculation,7%
same,pest or weed control at 200 µg/mL,Botrytis cinerea; 100 = 100% disease control,100%
same,pest or weed control at 200 µg/mL,[3],100%
COc1cc(F)c(-c2c(C)nn(C)c2Oc2c(F)cc(Cl)cc2F)c(F)c1 [Compound 15],Test E rating (disease control),Septoria nodorum; Septoria glume blotch,89%
same,Test I rating (disease control),[1]; wheat powdery mildew,100%
same,Test F rating (disease control),Septoria tritici; [5],98%
same,Test B rating (disease control),Alternaria solani; tomato early blight,100%
same,Test G rating (disease control),[2]; sprayed after inoculation,82%
same,Test A rating (disease control),Botrytis cinerea; [4],98%
same,Test H rating (disease control),[3]; wheat leaf rust,100%
"Cc1nn(C)c(Nc2ccc(F)cc2F)c1-c1ccc(Cl)cc1Cl [Compound 17, 4-(2,4-dichlorophenyl)-N-(2,4-difluorophenyl)-1,3-dimethyl-1H-pyrazol-5-amine]",pest or weed control at 200 µg/mL,Septoria nodorum,60%
same,pest or weed control at 200 µg/mL,[1],100%
same,pest or weed control at 200 µg/mL,Septoria tritici; [5],99%
same,pest or weed control at 200 µg/mL,Alternaria solani,73%
same,pest or weed control at 200 µg/mL,[2]; sprayed after inoculation,91%
same,pest or weed control at 200 µg/mL,Botrytis cinerea; 100 = 100% disease control,100%
same,pest or weed control at 200 µg/mL,[3],99%
"Cc1nn(C)c(C(O)c2ccc(F)cc2Br)c1-c1ccc(F)cc1Cl (stereo not drawn) [Compound 153, α-(2-bromo-4-fluorophenyl)-4-(2-chloro-4-fluorophenyl)-1,3-dimethyl-1H-pyrazole-5-methanol]",pest or weed control at 200 µg/mL,Septoria nodorum,0%
same,pest or weed control at 200 µg/mL,[1],0%
same,pest or weed control at 200 µg/mL,Septoria tritici; [5],100%
same,pest or weed control at 200 µg/mL,Alternaria solani,0%
same,pest or weed control at 200 µg/mL,[2]; sprayed after inoculation,0%
same,pest or weed control at 200 µg/mL,[3],96%
CCOc1ccc(-c2c(C)nn(C)c2Nc2ccc(F)cc2F)c(F)c1 [Compound 193],Test E rating (% disease control),Septoria nodorum,0%
same,Test I rating (% disease control),[1]; wheat powdery mildew,92%
same,Test F rating (% disease control),Septoria tritici; 100 = 100% disease control,100%
same,Test B rating (% disease control),Alternaria solani; tomato early blight,58%
same,Test G rating (% disease control),[2],0%
same,Test H rating (% disease control),[3]; wheat leaf rust,27%
COc1ccc(Oc2c(-c3ccc(F)cc3Cl)c(C)nn2C)c(F)c1 [compound 5],Test E rating (disease control),Septoria nodorum; Septoria glume blotch,97%
same,Test I rating (disease control),[1]; wheat powdery mildew,99%
same,"Test F rating (disease control), value marked *",Septoria tritici,97* %
same,Test B rating (disease control),Alternaria solani; tomato early blight,100%
same,Test A rating (disease control),Botrytis cinerea; [4],98%
same,Test H rating (disease control),[3]; wheat leaf rust,100%
COc1ccc(-c2c(C)nn(C)c2Nc2c(Cl)cc(F)cc2Cl)c(F)c1 [compound 194],Test E rating (% disease control),Septoria nodorum,87%
same,Test I rating (% disease control),[1]; wheat powdery mildew,63%
same,Test F rating (% disease control),Septoria tritici; 100 = 100% disease control,100%
same,Test B rating (% disease control),Alternaria solani; tomato early blight,93%
same,Test G rating (% disease control),[2],0%
same,Test H rating (% disease control),[3]; wheat leaf rust,95%
